Reference: PubChem BioAssay AID248 (DTP/NCI, 2004)
Inconclusive results and toxic doses are left out. No stated cut-off is given here; in the data, active means T/C of 150% or more; inactive means T/C below 125%.

System: L1210 leukemia ip in BDF1 mice, survival T/C
Assay: NCI In Vivo Anticancer Drug Screen. Data for tumor model L1210 Leukemia (intraperitoneal) in B6D2F1 (BDF1) mice
Conditions: endpoint: mean survival time, higher = longer survival
How it was run: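 Ratio derived from survival: compound-dosed mice over vehicle-dosed mice, all bearing a transplantable tumor.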

[1] = dose: 10.0 mg/kg/injection, schedule: Q01DX001 (ip), vehicle: saline
[2] = dose: 100.0 mg/kg/injection, schedule: Q04DX003 (ip), vehicle: saline
[3] = dose: 200.0 mg/kg/injection, schedule: Q04DX003 (ip), vehicle: saline
[4] = dose: 100.0 mg/kg/injection, schedule: Q01DX001 (ip), vehicle: saline
[5] = dose: 200.0 mg/kg/injection, schedule: Q01DX001 (ip), vehicle: saline
[6] = dose: 400.0 mg/kg/injection, schedule: Q01DX001 (ip), vehicle: saline

Measured: T/C

c1ccc(C2(NC3=NCCO3)CCCCC2)cc1
inactive: dose: 10.0 mg/kg/injection, schedule: Q01DX009 (ip), vehicle: Klucel (hydroxypropylcellulose) (HPC) 101 % of control | dose: 20.0 mg/kg/injection, schedule: Q01DX009 (ip), vehicle: Klucel (hydroxypropylcellulose) (HPC) 97 % of control | dose: 40.0 mg/kg/injection, schedule: Q01DX009 (ip), vehicle: Klucel (hydroxypropylcellulose) (HPC) 101 % of control | dose: 75.0 mg/kg/injection, schedule: Q01DX009 (ip), vehicle: Klucel (hydroxypropylcellulose) (HPC) 107 % of control

CC(C)(C(=O)OCCOCCCl)c1cccc2ccccc12
inactive: dose: 100.0 mg/kg/injection, schedule: Q04DX002 (ip), vehicle: saline with Tween-80 113 % of control | dose: 200.0 mg/kg/injection, schedule: Q04DX002 (ip), vehicle: saline with Tween-80 111 % of control | dose: 400.0 mg/kg/injection, schedule: Q04DX002 (ip), vehicle: saline with Tween-80 95 % of control

COc1ccc(C[As+](Cc2ccccc2)(Cc2ccc(OC)cc2)Cc2ccc(OC)cc2)cc1
inactive: dose: 5.0 mg/kg/injection, schedule: Q01DX001 (ip), vehicle: saline 103 % of control | [1] 98 % of control | dose: 20.0 mg/kg/injection, schedule: Q01DX001 (ip), vehicle: saline 96 % of control

Cc1ccc(S(=O)(=O)OC2C(C)(C)C(=O)C2(C)C)cc1
inactive: dose: 100.0 mg/kg/injection, schedule: Q01DX001 (ip), vehicle: carboxymethylcellulose (CMC) 97 % of control | dose: 200.0 mg/kg/injection, schedule: Q01DX001 (ip), vehicle: carboxymethylcellulose (CMC) 92 % of control | dose: 400.0 mg/kg/injection, schedule: Q01DX001 (ip), vehicle: carboxymethylcellulose (CMC) 92 % of control

S=C(SSC(=S)N1CCOCC1)N1CCOCC1
inactive: dose: 100.0 mg/kg/injection, schedule: Q01DX001 (ip), vehicle: Klucel (hydroxypropylcellulose) (HPC) 88 % of control | [2] 93 % of control | dose: 200.0 mg/kg/injection, schedule: Q01DX001 (ip), vehicle: Klucel (hydroxypropylcellulose) (HPC) 101 % of control | [3] 101 % of control

CC(C)=CCCC1(C)C=Cc2c(c(C)cc3c4ccccc4n(C)c23)O1 (centres undefined)
inactive: dose: 25.0 mg/kg/injection, schedule: Q04DX002 (ip), vehicle: DMSO 96 % of control | dose: 50.0 mg/kg/injection, schedule: Q04DX002 (ip), vehicle: DMSO 89 % of control | dose: 100.0 mg/kg/injection, schedule: Q04DX002 (ip), vehicle: DMSO 99 % of control

CC(CNc1ccc(Cl)cc1)(CNc1ccc(Cl)cc1)[N+](=O)[O-]
inactive: [2] 92 % of control | [3] 88 % of control | dose: 400.0 mg/kg/injection, schedule: Q04DX003 (ip), vehicle: saline 92 % of control

O=C(/C=C/c1ccccc1Cl)NCC(O)CO (centres undefined)
inactive: dose: 100.0 mg/kg/injection, schedule: Q04DX003 (ip), vehicle: other 108 % of control | dose: 200.0 mg/kg/injection, schedule: Q04DX003 (ip), vehicle: other 109 % of control | dose: 400.0 mg/kg/injection, schedule: Q04DX003 (ip), vehicle: other 109 % of control

CN(C)P1N(C)CCN1C
inactive: [4] 95 % of control | [5] 106 % of control | [6] 87 % of control

CCCOC(=O)C(OC(=O)c1ccccc1)C(OC(=O)c1ccccc1)C(=O)OCCC (centres undefined)
inactive: [4] 104 % of control | [5] 96 % of control | [6] 94 % of control

CC1CCCN(C(=S)[S-])C1.CC1CCCN(C(=S)[S-])C1.[Zn] (centres undefined)
inactive: dose: 1.25 mg/kg/injection, schedule: Q01DX009 (ip), vehicle: saline 88 % of control | dose: 2.5 mg/kg/injection, schedule: Q01DX009 (ip), vehicle: saline 86 % of control | dose: 2.5 mg/kg/injection, schedule: Q04DX003 (ip), vehicle: acetone 91 % of control | dose: 5.0 mg/kg/injection, schedule: Q04DX003 (ip), vehicle: acetone 88 % of control | [1] 96 % of control | dose: 10.0 mg/kg/injection, schedule: Q04DX003 (ip), vehicle: acetone 88 % of control | dose: 10.0 mg/kg/injection, schedule: Q04DX003 (ip), vehicle: saline 86 % of control
